# Data reported in BindingDB's records for doi:10.1016/j.bmc.2008.01.035 (Anhui University of Technology, 2008).
# Target: DNA gyrase subunit A/B (Staphylococcus aureus, UniProt P0A0K8+P20831)
# Experiment: Inhibition of Staphylococcus aureus DNA gyrase supercoiling activity
row,IC50 [nM],SMILES
1,12200,COC1CC(c2ccccc2)=NN1/C(C)=N\OC(=O)c1ccco1 (stereo not drawn)
2,1180,C=CC(=O)O/N=C(/C)N1N=C(c2ccc(Cl)cc2Cl)CC1c1ccccc1F (stereo not drawn)
3,271,C/C(=N/OC(=O)c1ccco1)N1N=C(c2ccc(Cl)cc2Cl)CC1c1ccccc1F (stereo not drawn)
4,979,C/C(=N/OC(=O)c1ccco1)N1N=C(c2ccc(Cl)cc2Cl)CC1c1ccc(C(F)(F)F)cc1 (stereo not drawn)
5,7830,CC1=NN(/C(C)=N\OC(=O)c2cccnc2)C(c2ccc(OCc3ccc(F)cc3)cc2)C1 (stereo not drawn)
6,308,COC1CC(c2ccccc2)=NN1/C(C)=N\OC(=O)c1ccc(C(F)(F)F)cc1 (stereo not drawn)
7,> 314000,CCC(=O)O/N=C(/C)N1N=C(C)CC1c1ccccc1OCc1ccc(F)cc1 (stereo not drawn)
8,1160,CC1=NN2C(C1)c1ccccc1CC2(C)C (stereo not drawn)
